{
  "source": "PubChem BioAssay AID1745844",
  "about": "(Carcinogenic Potency Database (CPDB), 2022)",
  "tested_on": "rodent lifetime carcinogenesis bioassay, tumor incidence TD50",
  "experiment": "chronic cancer bioassays in animals – CPDB, compiled studies (AID 1745844)",
  "note": "Active and inactive are the calls of the source. The rule behind the calls is not given here.",
  "data": [
    {"smiles": "S=C([S-])NCCNC(=S)[S-].[Mn+2]", "values": [
      {"measurement": "TD50", "setting": "mouse, strain B6AKF1, females, oral dosing, site: any site (literature study), lesion: several types, types named in the paper, dosed 76 weeks, study length 76 weeks", "result": "138 mg/kg/day (inactive)"},
      {"measurement": "carcinogen call", "setting": "mouse, strain B6AKF1, females, oral dosing, site: liver, lesion: hepatoma, dosed 76 weeks, study length 76 weeks", "result": "negative (inactive)"},
      {"measurement": "carcinogen call", "setting": "mouse, strain B6AKF1, females, oral dosing, site: lung, lesion: adenoma, dosed 76 weeks, study length 76 weeks", "result": "negative (inactive)"},
      {"measurement": "TD50", "setting": "mouse, strain B6AKF1, males, oral dosing, site: any site (literature study), lesion: several types, types named in the paper, dosed 76 weeks, study length 76 weeks", "result": "106 mg/kg/day (inactive)"},
      {"measurement": "carcinogen call", "setting": "mouse, strain B6AKF1, males, oral dosing, site: liver, lesion: hepatoma, dosed 76 weeks, study length 76 weeks", "result": "negative (inactive)"},
      {"measurement": "TD50", "setting": "mouse, strain B6AKF1, males, oral dosing, site: lung, lesion: adenoma, dosed 76 weeks, study length 76 weeks", "result": "54.9 mg/kg/day (inactive)"},
      {"measurement": "carcinogen call", "setting": "mouse, strain B6C3F1, females, oral dosing, site: any site (literature study), lesion: one or several types, types not named, dosed 76 weeks, study length 76 weeks", "result": "negative (inactive)"},
      {"measurement": "carcinogen call", "setting": "mouse, strain B6C3F1, females, oral dosing, site: liver, lesion: hepatoma, dosed 76 weeks, study length 76 weeks", "result": "negative (inactive)"},
      {"measurement": "carcinogen call", "setting": "mouse, strain B6C3F1, females, oral dosing, site: lung, lesion: several types, types named in the paper, dosed 76 weeks, study length 76 weeks", "result": "negative (inactive)"},
      {"measurement": "TD50", "setting": "mouse, strain B6C3F1, males, oral dosing, site: any site (literature study), lesion: several types, types named in the paper, dosed 76 weeks, study length 76 weeks", "result": "62.3 mg/kg/day (inactive)"},
      {"measurement": "TD50", "setting": "mouse, strain B6C3F1, males, oral dosing, site: liver, lesion: hepatoma, dosed 76 weeks, study length 76 weeks", "result": "128 mg/kg/day (inactive)"},
      {"measurement": "TD50", "setting": "mouse, strain B6C3F1, males, oral dosing, site: lung, lesion: adenoma, dosed 76 weeks, study length 76 weeks", "result": "128 mg/kg/day (inactive)"},
      {"measurement": "TD50", "setting": "rat, strain Mongrel, both sexes, by gavage, site: any site (literature study), lesion: several types, types named in the paper, dosed 95 weeks, study length 104 weeks", "result": 157, "unit": "mg/kg/day"}
    ]},
    {"smiles": "O=NN1CCCCC1C(=O)O", "note": "(stereo not given)", "values": [
      {"measurement": "TD50", "setting": "rat, strain MRC, females, in drinking water, site: any site (literature study), lesion: several types, types named in the paper, dosed 75 weeks, study length 104 weeks", "result": "4.99 mg/kg/day (inactive)"},
      {"measurement": "TD50", "setting": "rat, strain MRC, males, in drinking water, site: any site (literature study), lesion: several types, types named in the paper, dosed 75 weeks, study length 104 weeks", "result": "3.82 mg/kg/day (inactive)"}
    ]}
  ]
}
